Where “and” joins values, the source holds several entries; their conditions need not be identical. Equal entries are not always repeated.
How the values were obtained:
IL-13 = assay: Human primary Th2 cells, anti-CD3/anti-CD28 activated, IL-13 ELISA; assay type: cell-based
Protocol: (§1) Briefly, CD4^+CD45RA^+ T cells, isolated from donor peripheral blood mononuclear cells of healthy donors, are educated in the presence of anti-CD3/CD28 antibodies and various growth factors to obtain either a Thl-like or Th2-like phenotypes as determined by the known cytokine profiles of these two cell types.
(§2) Peripheral blood mononuclear cells (PBMC) are prepared from human blood by Ficoll-Hypacque (Pharmacia). The cells are washed two times in Hanks balanced salt solution (HBSS) and counted.
(§3) Naive T cells (CD4^+/CD45RA ) are prepared by negative selection method using following antibodies and Dynabeads: anti-CD8, anti-HLA-DR, (where HLA means human leucocyte antigen) anti-CD14, anti-CD16, anti-CD19, anti-CD45RO antibodies (all from R&D Systems, 1-2 µg/ml) are added to the cells, and the cells are kept on ice for 30 min. The cells are washed two times in HBSS, and goat anti- mouse Ig-beads, (bead:target ratio, 5:1) are added. The cells and beads are slowly rotated at 4°C for 20 min. (following the protocol supplied from Dynal). The supernatant is removed and fresh goat anti-mouse Ig-beads are added to the supernatant, which is slowly rotated at 4°C for 20 min. The cells are counted and phenotypically characterized by flow cytometric analysis.
(§4) CD4^+/CD45RA^+ cells at a density of 10^6/ml in RPMI, is prepared and added to RPMI medium containing 10% Hyclone serum/ glutamine and 1-2 µg/ml anti-CD28 Ab. The cells are split in two aliquots. For Th1 cells: anti-IL-4 Ab (1-2 µg/ml), IFN-γ (1 µg/ml, or 5000 units/ml) are added to the wells. For Th2 cells: IL-4 (100-200 ng/ml), anti-IFN-γ neutralizing Ab (1-2 µg/ml), anti-IL-12 neutralizing Ab (1-2 µg/ml) are added into the wells. […] The cells are transferred to fresh wells and grown in 200 units/ml IL-2 for 2 weeks by feeding them every other day with IL-2 containing medium and splitting the cultures 1:2 or 1:3 as needed. The degree of polarization is determined by intracellular staining of cells with anti-IFN-γ and anti-IL-4 antibodies from Pharmingen, and using flow cytometry from Becton Dickinson (BD), according to manufacturers description. The cells are stimulated with PHA and alloantigens at day 14 and 28 as described below. Eight days after the second allostimulation the cells can be used for compound screening or frozen for future use. For compound testing, large quantities of Th1 and Th2 cells derived from a given donor (NYTh1 and NYTh2) were expanded and frozen as aliquots in liquid nitrogen. The cells are thawed and cultured as and when needed. The thawed cells are stimulated with alloantigen/PHA combination. The cells are used for compound screening after 8-10 days in culture.
(§5) Re-stimulation by allogeneic cells: Human PBMCs, to be used as alloantigens, are isolated from freshly drawn blood by Ficoll separation. […] Cells are counted and diluted to a final concentration of 2 x 10^6/ml in medium containing 10 µg/ml PHA and 200 units/ml IL-2.
(§6) Ninetysix well Falcon tissue culture plates (Fisher Scientific) are coated with 100 microliters per well of 10 µg/ml anti-CD3 (PharMingen) antibody in phosphate buffered saline (PBS) and stored at 4°C one day before the experiment.
(§7) On the day of assay, anti-CD3 antibody coated plates are washed with PBS once to remove all soluble anti-CD3 antibody. […] All compounds and controls are assayed in triplicates.

IFN-γ = assay: Human primary Th2 cells, anti-CD3/anti-CD28 activated, IFN-γ ELISA; assay type: cell-based
Protocol: as §1, §2, §3, §4, §5, §6, §7

human IL-4 promoter = assay: IL-4 Luciferase assay in Jurkat cells (6.7-IL-4 Luc); assay type: cell-based; settings: Jurkat cell line; concentration not given
IgG1 Anti-DNP Antibody = assay: In vivo model of humoral immunity in mice (DNP-KLH), IgG1 anti-DNP antibody
Protocol: Female Balb/c mice, each weighing approximately 20 to 25 grams each, aged 5 to 8 weeks are used. Each experiment uses 30 mice.
The antigen for immunization is 2,4-dinitrophenyl (DNP) or 2,4,6-trinitrophenyl (TNP) conjugated to keyhole limpet haemocyanin (KLH). The antigen (100 µg/mouse) is adsorbed to an adjuvant (colloidal aluminum hydroxide) and given i.p. to animal in a total volume of 0.2-0.3 ml.
Animals are randomly divided into 5 groups of 6 mice each. Group 1 is a positive control group, Groups 2, 3, and 4 are test compound groups, and Group 5 is a vehicle control group. Compounds may be given by i.n., i.p., p.o., s.c., i.m. or i.v. administration. […] On day 8 after the immunization, mice are bled by cardiac puncture under anesthesia (isoflurane), and the serum samples are stored at -20°C until required for antibody analysis. The anesthetized animals are euthanized with overdosage of sodium pentobarbital at the end of experiment. Statistical analysis of the data are performed using ANOVA.
Mice are immunized with a hapten carrier conjugate, DNP-KLH, and anti-DNP antibody levels are determined in a isotype specific manner as described above. […]

Anti-OVA IgE = assay: OVA induced allergen specific IgE in mice; assay type: in vivo; settings: bled at day 15, vehicle 150.8
Protocol: Female mice (5-8 week age, Balb/c, Charles River) were used in this study. Ovalbumin (Sigma) was adsorbed to Aluminum Hydroxide Adsorptive Gel, Inter, and injected 10 µg/0.2ml/mouse intraperitoneally on experimental day 0 and day 7. […] They were bled at day 15. Serum ovalbumin specific IgE levels were determined by standard ELISA using a goat anti-mouse IgE antibody labeled with alkaline phosphatase. The anti-OVA titers were determined by making serial dilutions of the test sera and comparing with vehicle control.

[1] = Human primary Th2 cells, combined data from 10 different experiments

O=C(O)c1[nH]c2ccccc2c1Nc1ccncc1 [Example 28, 3-(4-Pyridinylamino)-1H-indole-2-carboxylic acid]
activity at 0.01 µM (IL-13; Homo sapiens, 0.01 µM, 48 hr, read-out: IL-13 (% control) mean): 91% | activity at 0.03 µM (IL-13; Homo sapiens, 0.03 µM, 48 hr, read-out: IL-13 (% control) mean): 86.4% | activity at 0.1 µM (IL-13; Homo sapiens, 0.1 µM, 48 hr, read-out: IL-13 (% control) mean): 82.3% | activity at 0.3 µM (IL-13; Homo sapiens, 0.3 µM, 48 hr, read-out: IL-13 (% control) mean): 80.6% | activity at 1 µM (IL-13; Homo sapiens, 1 µM, 48 hr, read-out: IL-13 (% control) mean): 75.2% | activity at 3 µM (IL-13; Homo sapiens, 3 µM, 48 hr, read-out: IL-13 (% control) mean): 73.4% | activity at 10 µM (IL-13; Homo sapiens, 10 µM, 48 hr, read-out: IL-13 (% control) mean): 68.4% | IC50 (IL-13; [1]): ~10 µM | activity at 0.01 µM (IFN-γ; Homo sapiens, 0.01 µM, 48 hr, read-out: IFN-γ (% control) mean): 96.9% | activity at 0.03 µM (IFN-γ; Homo sapiens, 0.03 µM, 48 hr, read-out: IFN-γ (% control) mean): 91.6% | activity at 0.1 µM (IFN-γ; Homo sapiens, 0.1 µM, 48 hr, read-out: IFN-γ (% control) mean): 91.8% | activity at 0.3 µM (IFN-γ; Homo sapiens, 0.3 µM, 48 hr, read-out: IFN-γ (% control) mean): 92.1% | activity at 1 µM (IFN-γ; Homo sapiens, 1 µM, 48 hr, read-out: IFN-γ (% control) mean): 89.2% | activity at 3 µM (IFN-γ; Homo sapiens, 3 µM, 48 hr, read-out: IFN-γ (% control) mean): 83.5% | activity at 10 µM (IFN-γ; Homo sapiens, 10 µM, 48 hr, read-out: IFN-γ (% control) mean): 75% | IC50 (IFN-γ; [1]): > 10 µM | 6.7-IL-4 Luc (% of control) (human IL-4 promoter): 62 ± 29 % of control | IgG1 Anti-DNP Antibody Titer (IgG1 Anti-DNP Antibody; individual animals 1-6, dose not stated): 72.42 and 185.22 and 19.83 and 40.19 and 83.11 and 37.83 | IgG1 Anti-DNP Antibody Titer Mean+/-SE (IgG1 Anti-DNP Antibody; vehicle 167.69 +/-18.19, dose not stated): 73.10 +/-24.38 | IgG1 Anti-DNP Antibody Titer Inhibition (IgG1 Anti-DNP Antibody; versus vehicle): 56.5% | Anti-OVA IgE (Anti-OVA IgE; 3 mg/kg intraperitoneally once a day from day 6 to day 14): 41.8 | Anti-OVA IgE (Anti-OVA IgE; 10 mg/kg intraperitoneally once a day from day 6 to day 14): 45.6
